Assay results reported in article PMC7826790, “Glucose 6-Phosphate Dehydrogenase from Trypanosomes: Selectivity for Steroids and Chemical Validation in Bloodstream Trypanosoma brucei” (Molecules, 2021).
Like-named read-outs stand apart in the source and are kept apart here.

Tests used:
[1] = Cytotoxicity to murine macrophages (WST-1); format: cell-based; conditions: mouse, J774 murine macrophage cells, read-out: CC50 Murine Macrophage (Cell Line J774)
Procedure: (§3) Cell viability was assessed using the WST-1 reagent.
(§4) EC50 values were obtained from the corresponding concentration/response plots fitted to a sigmoidal Hill equation or extrapolated from nonlinear fitting equations.

[2] = tested on: Bloodstream T. b. brucei (strain 427- cell line 514-1313); test: Cell viability of bloodstream T. b. brucei (bioluminescent assay); format: cell-based, Trypanosoma brucei brucei; conditions: for EC50: 24 h incubation, read-out: EC50 T. brucei Bloodstream Form; for Selectivity Index (CC50 for murine macrophages/EC50 for T. brucei): DHEA: Hek293T CC50, Conessine: L6 CC50
Procedure: Parasite viability was performed as described in [72]. […] Thereafter, 200 µL from each well were transferred to a 96-well black plate and incubated with 20 µL of a solution containing: 1.5 mg/mL luciferin in PBS glucose 1% (w/v) and Triton X-100.

[3] = tested on: T. cruzi epimastigotes (strain DM28); test: Cell viability of T. cruzi epimastigotes (propidium iodide, flow cytometry); conditions: 72 h; for cytotoxicity at 50 µM: read-out: % Cytotoxicity (50 µM) T. Cruzi Epimastigote Form, 50 µM, 72 h
Procedure: T. cruzi epimastigotes (strain DM28) were grown at 28 °C in LIT medium supplemented with 10% (v/v) Fetal Bovine Serum (FBS; GIBCO®), 7.5 mM hemin and antibiotics (penicillin 10 U/mL– streptomycin 10 µg/mL). […] Thereafter, 200 µL from each well were transferred to individual cytometer tubes.
EC50 values were obtained from the corresponding concentration/response plots fitted to a sigmoidal Hill equation or extrapolated from nonlinear fitting equations. The errors were calculated using error propagations and are expressed as S.D. estimated as σ^(n−1).

human G6PDH [4] = molecular target: T1, human G6PDH (Homo sapiens, UniProt P11413); test: G6PDH enzymatic assay, recombinant human G6PDH (NADPH formation at 340 nm); format: biochemical, H. sapiens; conditions: for inhibition at 100 µM: read-out: % inhibition of human G6PDH; for inhibition of human G6PDH at highest concentration: 100 µM
T1 construct: hexa-histidine (His6) (N); made in house; host or cells: E. coli Tuner (DE3), pHis vector
T1 sequence (P11413 whole entry): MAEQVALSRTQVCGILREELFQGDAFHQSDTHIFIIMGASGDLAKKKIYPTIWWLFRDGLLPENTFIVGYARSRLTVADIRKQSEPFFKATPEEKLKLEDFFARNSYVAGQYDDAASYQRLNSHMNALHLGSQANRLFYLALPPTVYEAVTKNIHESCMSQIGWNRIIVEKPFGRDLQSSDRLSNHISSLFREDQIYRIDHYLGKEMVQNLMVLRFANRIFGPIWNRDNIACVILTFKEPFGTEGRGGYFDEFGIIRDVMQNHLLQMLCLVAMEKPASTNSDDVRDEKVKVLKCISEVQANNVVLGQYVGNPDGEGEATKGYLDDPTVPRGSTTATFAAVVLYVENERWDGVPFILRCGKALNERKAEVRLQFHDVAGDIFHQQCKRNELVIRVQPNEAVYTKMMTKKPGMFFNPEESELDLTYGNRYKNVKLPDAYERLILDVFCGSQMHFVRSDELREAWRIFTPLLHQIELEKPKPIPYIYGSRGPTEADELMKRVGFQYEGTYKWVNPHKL
Procedure: (§1) E. coli Tuner (DE3) cells were transformed with the pET28a (+) and pHis constructs encoding for N-terminally hexa histidine-tagged TcG6PDHL and HsG6PDH, respectively, and grown overnight in LB medium with […] and […], respectively. […] Thereafter, the cultures were incubated for 20 h at 25 °C and 170 rpm. Cells were harvested by centrifugation (5000× g, 10 min, 4 °C), resuspended in buffer A (50 mM Tris, pH of 8.0, 500 mM NaCl and 5 mM MgCl2) containing a complete™ Protease Inhibitor Cocktail prepared as indicated by the provider (Sigma-Aldrich-Merck, Germany); afterwards, we added 1 mg/mL of lysozyme and incubated the cells for 1 h at 4 °C. Cells were further lysed by three cycles of sonication (45% amplitude, 2 s pulse on/off, for 1 min) using a macrotip in a Branson Digital Sonifier 450 (Marshall Scientific, Hampton, VA, USA) and debris was removed by centrifugation at 27,000× g for 45 min at 4 °C and filtrated through a 0.45 µm filter (Millipore-Merck, Darmstadt, Germany). […] Protein concentration was determined from the absorbance values at 280 nm and the corresponding theoretical absorbance coefficients.
(§2) G6PDH activity was determined at room temperature (RT) by monitoring NADPH (ε340 = 6220 M^−1 cm^−1) formation at 340 nm. All reactions were performed in 50 mM Tris (pH 7.5) with 5 mM MgCl2 and 250 mM NaCl in a final volume of 500 µL. The reactions were started by the addition of 700 µM NADP^+ and 6 mM G6P for TcG6PDH or by the addition of 250 µM NADP^+ and 1 mM G6P for the human enzyme. For each enzyme, a control reaction in the presence of 1% (v/v) DMSO was run. Stock and working solutions of compounds were prepared in 100% (v/v) DMSO. […] The initial velocities were calculated from the first 45 s of the reaction and normalized to the corresponding enzyme control. All measurements were performed at least in triplicate using a Cary 50 Bio spectrophotometer (Agilent Technologies, Santa Clara, CA, USA) at RT. The initial rates were determined with the Origin Pro 8.0 software (OriginLab Corporation, Northampton, MA, USA), and the IC50 values were calculated by nonlinear regression using the GraphPad Prism 5.0 software (GraphPad Inc., San Diego, CA, USA).

T. cruzi G6PDH [5] = molecular target: T2, T. cruzi G6PDH (Trypanosoma cruzi, UniProt Q4E0B2); test: biochemical; format: biochemical
T2 sequence (Q4E0B2 entry or part of it): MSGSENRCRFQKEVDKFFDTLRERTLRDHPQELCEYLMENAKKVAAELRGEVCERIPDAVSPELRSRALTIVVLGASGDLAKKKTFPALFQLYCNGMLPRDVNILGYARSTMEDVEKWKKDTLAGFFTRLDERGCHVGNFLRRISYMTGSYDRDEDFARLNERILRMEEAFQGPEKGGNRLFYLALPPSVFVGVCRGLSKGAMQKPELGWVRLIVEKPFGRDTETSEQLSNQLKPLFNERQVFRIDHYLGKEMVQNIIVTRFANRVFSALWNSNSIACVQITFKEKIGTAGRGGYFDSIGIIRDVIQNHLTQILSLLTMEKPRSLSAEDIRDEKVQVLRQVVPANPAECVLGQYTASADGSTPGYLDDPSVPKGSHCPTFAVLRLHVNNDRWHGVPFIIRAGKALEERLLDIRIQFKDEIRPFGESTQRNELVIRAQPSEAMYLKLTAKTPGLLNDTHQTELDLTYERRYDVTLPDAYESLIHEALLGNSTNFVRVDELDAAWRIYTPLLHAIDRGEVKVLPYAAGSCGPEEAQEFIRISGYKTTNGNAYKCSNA
Procedure: as §1, with “°C.” for “°C. Cells were further lysed by three cycles of sonication (45% amplitude, 2 s pulse on/off, for 1 min) using a macrotip in a Branson Digital Sonifier 450 (Marshall Scientific, Hampton, VA, USA) and debris was removed by centrifugation at 27,000× g for 45 min at 4 °C and filtrated through a 0.45 µm filter (Millipore-Merck, Darmstadt, Germany).”
as §2, with “All” for “G6PDH activity was determined at room temperature (RT) by monitoring NADPH (ε340 = 6220 M^−1 cm^−1) formation at 340 nm. All”, “The reactions were started by the addition of 700 µM NADP^+ and 6 mM G6P for TcG6PDH or by the addition of 250 µM NADP^+ and 1 mM G6P for the human enzyme.” left out

[6] = tested on: Murine macrophages (cell line J774); test: Cytotoxicity to murine macrophages (WST-1); format: cell-based; conditions: 24 h, read-out: CC50 Murine Macrophage (Cell Line J774)
Procedure: as §3, §4

human G6PDH [7] = molecular target: T1, human G6PDH; design: method as in PMID 22506561; conditions: read-out: IC50 H. sapiens G6PDH; cited from earlier work
[8] = tested on: Bloodstream T. b. brucei (strain 427- cell line 514-1313); design: method as in PMID 28684718; conditions: read-out: EC50 T. brucei Bloodstream Form, cited from earlier work
[9] = tested on: mammalian L6 cell line from rat skeletal myoblasts; design: method as in PMID 28684718; conditions: printed in the macrophage column; read-out: CC50 against mammalian L6 cell line; cited from earlier work
[10] = tested on: Bloodstream T. b. brucei expressing the redox biosensor hGrxroGFP2; test: Redox reporter assay (hGrx1-roGFP2 biosensor, flow cytometry); format: cell-based, Trypanosoma brucei brucei
Procedure: Bloodstream T. b. brucei expressing the redox biosensor hGrxroGFP2 was grown as described elsewhere. […] Next, 50 µL from each well were transferred to a 96-well plate, containing 100 µL of sterile PBS with glucose 1% (w/v). […] GFP fluorescence (filter λem = 530/40 nm) was only analyzed for viable cells (PI negative). The data were processed and analyzed with the C6Accuri software. Samples were analyzed in triplicate and the error is expressed as S.D.

Hek293T = conditions: read-out: CC50 against Hek293T; printed in the macrophage column; cited from earlier work
T. cruzi G6PDH [11] = molecular target: T2, T. cruzi G6PDH; conditions: read-out: IC50 T. cruzi G6PDH, cited from earlier work
L. mexicana G6PDH = conditions: cited from earlier work
[12] = tested on: G6PDH in T. cruzi strain CL Brenner epimastigotes; conditions: 24 h
[13] = recombinant human G6PDH, 250 µM NADP+, 1 mM G6P, RT, read-out: IC50 H. sapiens G6PDH

C[C@]12CC[C@H](O)C[C@@H]1CC[C@@H]1[C@@H]2CC[C@]2(C)C(=O)[C@H](Br)C[C@@H]12 [Compound 1, 16α-bromo-epiandrosterone]
CC50 at 24 h [1]: 8.8 ± 1 µM
EC50 ([2]; Trypanosoma brucei, 24 h): 1.9 ± 0.2 µM
% Cytotoxicity (50 µM) T. Cruzi Epimastigote Form [3]: 14.5 ± 5.3%
cytotoxicity at 50 µM ([3]; Trypanosoma cruzi): 15%

CC(=O)O[C@H]1CC[C@@]2(C)[C@@H](CC[C@@H]3[C@@H]2CC[C@]2(C)C(=O)[C@H](Br)C[C@@H]32)C1 [Compound 2]
CC50 at 24 h [1]: 42 ± 1 µM
EC50 ([2]; Trypanosoma brucei, 24 h): 5.3 ± 0.4 µM
IC50 (human G6PDH [4]): > 100 µM
inhibition at 100 µM (human G6PDH [4]): 0%
IC50 (T. cruzi G6PDH [5]): 0.11 ± 0.02 µM
cytotoxicity at 50 µM ([3]; Trypanosoma cruzi): 64 ± 4.1%

CC(=O)O[C@H]1CC[C@@]2(C)[C@@H](CC[C@@H]3[C@@H]2CC[C@]2(C)C(=O)[C@@H](Br)C[C@@H]32)C1 [Compound 3]
CC50 at 24 h [1]: 0.96 µM
CC50 [6]: 1 ± 0.1 µM
EC50 ([2]; Trypanosoma brucei, 24 h): 4.8 ± 0.5 µM
IC50 (human G6PDH [4]): > 100 µM
inhibition of human G6PDH at highest concentration (human G6PDH [4]): inactive
IC50 (T. cruzi G6PDH [5]): 1.5 ± 0.2 µM
% Cytotoxicity (50 µM) T. Cruzi Epimastigote Form [3]: 73.9 ± 3.4%
cytotoxicity at 50 µM ([3]; Trypanosoma cruzi): 74%

C[C@]12CC[C@H](O)CC1=CC[C@@H]1[C@@H]2CC[C@]2(C)C(=O)[C@H](Br)C[C@@H]12 [Compound 4]
CC50 at 24 h [1]: 19 ± 3 µM
EC50 ([2]; Trypanosoma brucei, 24 h): 7.5 ± 0.3 µM
IC50 (human G6PDH [4]; [13]): 48 ± 2.6 µM
cytotoxicity at 50 µM ([3]; Trypanosoma cruzi): 6.4 ± 1.6%

CC(=O)O[C@H]1CC[C@@]2(C)C(=CC[C@@H]3[C@@H]2CC[C@]2(C)C(=O)[C@H](Br)C[C@@H]32)C1 [Compound 5]
CC50 at 24 h [1]: 39 ± 3 µM
EC50 ([2]; Trypanosoma brucei, 24 h): 18 ± 3 µM
IC50 (human G6PDH [4]): > 100 µM
inhibition at 100 µM (human G6PDH [4]): 0%
IC50 (T. cruzi G6PDH [5]): 0.079 ± 0.01 µM
cytotoxicity at 50 µM ([3]; Trypanosoma cruzi): 30.9 ± 2.5%

CC(=O)O[C@H]1CC[C@@]2(C)C(=CC[C@@H]3[C@@H]2CC[C@]2(C)C(=O)[C@@H](Br)C[C@@H]32)C1 [Compound 6]
CC50 at 24 h [1]: 4.5 ± 0.4 µM
EC50 ([2]; Trypanosoma brucei, 24 h): 5.3 ± 0.5 µM
IC50 (human G6PDH [4]): > 100 µM
inhibition of human G6PDH at highest concentration (human G6PDH [4]): inactive
IC50 (T. cruzi G6PDH [5]): > 50 µM
% Cytotoxicity (50 µM) T. Cruzi Epimastigote Form [3]: 76.2 ± 0.8%
cytotoxicity at 50 µM ([3]; Trypanosoma cruzi): 76%

C[C@]12CC[C@H](O)CC1=CC[C@@H]1[C@@H]2CC[C@]2(C)C(=O)C(O)C[C@@H]12 (stereo partly shown) [Compound 7]
CC50 at 24 h [1]: > 24 µM
EC50 [2]: > 24 µM
EC50 ([2]; Trypanosoma brucei, 24 h): 24 to 44 µM
IC50 (human G6PDH [7]): 15.8 ± 3.3 µM
cytotoxicity at 50 µM ([3]; Trypanosoma cruzi): 3.9 ± 0.7%

C[C@H]1[C@H]2CC[C@H]3[C@@H]4CC=C5C[C@@H](N(C)C)CC[C@]5(C)[C@H]4CC[C@]23CN1C [Conessine, reference compound]
Selectivity Index (CC50 for murine macrophages/EC50 for T. brucei) [2]: 145.7
EC50 ([8]; footnote e): 0.42 ± 0.01 µM
inhibition of human G6PDH at highest concentration (human G6PDH [4]): did not inhibit
IC50 (human G6PDH [4]; [13]): > 100 µM
CC50 [9]: 61.2 µM
inhibition of T. cruzi G6PDH at highest concentration (T. cruzi G6PDH [5]; 100 µM): did not inhibit
IC50 (T. cruzi G6PDH [5]; recombinant TcG6PDH, 700 µM NADP+, 6 mM G6P, RT, read-out: IC50 T. cruzi G6PDH): > 100 µM
induction of oxidative stress in bloodstream trypanosomes [10]: did not induce oxidative stress

C[C@]12CC[C@H](O)CC1=CC[C@@H]1[C@@H]2CC[C@]2(C)C(=O)CC[C@@H]12 [DHEA, dehydroepiandrosterone]
CC50 (Hek293T): 25 ± 13 µM
IC50 (T. cruzi G6PDH [11]; TcG6PDH): 21.5 ± 0.5 µM
EC50 ([8]; footnote c): 43.8 ± 2 µM
IC50 (human G6PDH [7]): ~10 µM
inhibition of L. mexicana G6PDH (L. mexicana G6PDH): refractory

C[C@]12CC[C@H](O)C[C@@H]1CC[C@@H]1[C@@H]2CC[C@]2(C)C(=O)CC[C@@H]12 [EA, Epiandrosterone]
G6PDH specific activity in cell extracts ([12]; 25 μM EA): 0.12 U/mg
G6PDH specific activity in cell extracts ([12]; 100 μM EA): 0.09 U/mg
IC50 (T. cruzi G6PDH [11]; recombinant TcG6PDH): 3 ± 0.4 µM
EC50 ([8]; footnote c): 36.5 ± 3.6 µM
IC50 (human G6PDH [7]): ~10 µM
inhibition of L. mexicana G6PDH (L. mexicana G6PDH): refractory

CC1CS(=O)(=O)CCN1/N=C/c1ccc([N+](=O)[O-])o1 (stereo not shown) [Nifurtimox, reference compound]
CC50 at 24 h [1]: 140 ± 2 µM
Selectivity Index (CC50 for murine macrophages/EC50 for T. brucei) [2]: 23.3
EC50 ([2]; Trypanosoma brucei, 24 h): 6 ± 0.4 µM
cytotoxicity at 24 µM ([3]; Trypanosoma cruzi, read-out: % Cytotoxicity T. Cruzi Epimastigote Form, at 24 µM, 72 h): 46 ± 1.9%

CN(C)C(=O)/N=N/C(=O)N(C)C [diamide]
biosensor oxidation ([10]; 250 µM, 20 min): 54%
